Values of other authors, collected in patent US20230285409A1, “METHODS OF USING RHO KINASE INHIBITORS TO TREAT VASCULAR DEMENTIA” (Woolsey Pharmaceuticals, Inc., priority 2020, published 2023).
Structures can show the parent of a compound that is named as a salt.

Columns and labels:
[1] = tested on: VaD patients; conditions: cited from earlier work
[2] = tested on: APP/PS1 transgenic mice; conditions: 5 and 10 mg/kg/day intraperitoneally; cited from earlier work
[3] = tested on: triple transgenic mouse model (APP Swedish, MAPT P301L, and PSEN1 M146V); conditions: 10 mg/kg/day intraperitoneally; cited from earlier work
[4] = tested on: triple transgenic mice; conditions: 30 mg/kg and 100 mg/kg in water, 10 or 12 months of age; cited from earlier work
[5] = tested on: streptozotocin rats; conditions: 5 and 10 mg/kg/day intraperitoneally; cited from earlier work
[6] = tested on: patients with wandering due to VaD; conditions: cited from earlier work
[7] = molecular target: p38 mitogen-activated protein kinase (Homo sapiens, UniProt Q16539); conditions: cited from earlier work
Chain of p38 mitogen-activated protein kinase (Q16539 whole entry): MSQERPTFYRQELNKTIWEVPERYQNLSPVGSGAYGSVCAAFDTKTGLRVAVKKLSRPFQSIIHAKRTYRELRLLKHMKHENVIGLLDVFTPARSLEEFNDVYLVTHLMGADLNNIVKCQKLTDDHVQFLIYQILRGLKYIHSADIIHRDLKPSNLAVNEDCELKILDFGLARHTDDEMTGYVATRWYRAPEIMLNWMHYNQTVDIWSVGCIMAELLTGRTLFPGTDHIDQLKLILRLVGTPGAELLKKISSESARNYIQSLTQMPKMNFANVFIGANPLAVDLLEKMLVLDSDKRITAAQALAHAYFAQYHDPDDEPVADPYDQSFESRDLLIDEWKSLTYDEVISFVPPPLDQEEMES

[8] = in vivo, 1-hydroxy metabolite; cited from earlier work

## O=S(=O)(c1cccc2cnccc12)N1CCCNCC1 [fasudil, Hexahydro-1-(5-Isoquinolinesulfonyl)-1H-1,4-Diazepine Monohydrochloride Hemihydrate]
[1]; 30 mg iv daily, control intravenous ligustrazine
  MMSE differential versus control: 7 point
[1]; 30 mg iv infusion daily, 2 weeks, 2 days off, 2 more weeks, mean or median unclear
  improvement in MMSE over baseline: 9 point
[1]; after treatment, baseline 54, >26 functionally impaired
  ADL score after treatment: 36
[1]; after treatment, baseline mean about 17
  MMSE score after treatment: ~27
[2]
  latency distance and quadrant time in the Morris water maze: improved
[3]
  ß-amyloid plaques in vivo: reduce ß-amyloid plaques
[4]
  spatial memory: did not observe improvements in spatial memory
[5]
  latency distance and quadrant time in the Morris water maze: improved
[6]; 30 mg and 60 mg per day, case studies
  cognitive improvements (MMSE): about 3 points
[6]; 30 mg and 60 mg per day
  dose response: no dose response
[6]; case studies
  spatial orientation: no improvement in spatial orientation
[6]; patient with Binswanger-type cerebral infarction, within weeks of beginning treatment
  wandering symptoms: wandering symptoms disappeared

## O=c1ncn2nc(Sc3ccc(F)cc3F)ccc2c1-c1c(Cl)cccc1Cl [Neflamapimod]
[7]; Phase 2
  primary endpoint of improving episodic memory: failed its primary endpoint
  tau in the cerebrospinal fluid: reducing tau
[7]; in humans
  Aβ deposition: no effect on Aβ deposition

## O=S(=O)(c1cccc2c(O)nccc12)N1CCCNCC1 [M3]
[8]
  half-life: about 8 hours
